Experimental data reported in US20210255193A1, “LYSINE REACTIVE PROBES AND USES THEREOF” (The Scripps Research Institute, priority 2017, published 2021).

Assays:
Assay in all cases: competitive isoTOP-ABPP
Type in all cases: binding
[1] = molecular target: T1, WARS Tryptophan--tRNA ligase, cytoplasmic (Homo sapiens, UniProt P23381); conditions: for isoTOP-ABPP ratio (R) at liganded lysine P23381_K256: sol, 231
T1 construct: isoTOP-ABPP experiments performed in cell lysates (in vitro); endogenous in cells; host or cells: soluble proteome of human cancer cell lines (MDA-MB-231; Ramos and Jurkat also prepared)
T1 sequence (P23381 1-471): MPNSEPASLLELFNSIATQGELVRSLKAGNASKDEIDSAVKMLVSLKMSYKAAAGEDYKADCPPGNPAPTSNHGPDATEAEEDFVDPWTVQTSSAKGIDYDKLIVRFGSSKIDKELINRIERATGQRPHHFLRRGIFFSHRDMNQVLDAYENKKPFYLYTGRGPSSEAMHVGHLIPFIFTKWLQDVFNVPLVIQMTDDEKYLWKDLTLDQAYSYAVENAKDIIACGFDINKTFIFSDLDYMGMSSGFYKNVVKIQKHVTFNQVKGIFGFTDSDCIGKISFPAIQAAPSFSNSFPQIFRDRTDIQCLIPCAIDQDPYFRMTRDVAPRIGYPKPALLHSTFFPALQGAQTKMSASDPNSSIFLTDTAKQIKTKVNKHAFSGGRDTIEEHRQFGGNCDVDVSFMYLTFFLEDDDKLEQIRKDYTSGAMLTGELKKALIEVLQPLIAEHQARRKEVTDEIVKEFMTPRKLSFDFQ
Outline: (§1)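 Fragments at 50 μM (activated esters) or 100 μM (guanidinylating agents) were incubated with 0.5 ml lysate before probe labeling. After 0.1 mM STP-alkyne for 1 h, samples were clicked to isotopically distinct TEV tags, and R taken as DMSO-over-compound MS1 peak-area ratio.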

[2] = molecular target: T2, ENOPH1 Enolase-phosphatase E1 (Homo sapiens, UniProt Q9UHY7); conditions: for isoTOP-ABPP ratio (R) at liganded lysine Q9UHY7_K111: sol, 231
T2 construct: endogenous in cells; host or cells: MDA-MB-231 (soluble fraction of lysate)
Outline: as §1

[3] = molecular target: T3, G6PD Glucose-6-phosphate 1-dehydrogenase (Homo sapiens, UniProt P11413); conditions: for isoTOP-ABPP ratio (R) at liganded lysine P11413_K171: sol, 231
T3 construct: isoTOP-ABPP experiments performed in cell lysates (in vitro); endogenous in cells; host or cells: MDA-MB-231 soluble lysate
Outline: as §1

LMNA Prelamin-A/C = molecular target: T4, LMNA Prelamin-A/C (Homo sapiens, UniProt P02545); conditions: for isoTOP-ABPP ratio (R) at liganded lysine P02545_K135: sol, 231
T4 construct: isoTOP-ABPP experiments performed in cell lysates (in vitro); endogenous in cells; host or cells: MDA-MB-231 soluble lysate
T4 sequence (P02545 1-664): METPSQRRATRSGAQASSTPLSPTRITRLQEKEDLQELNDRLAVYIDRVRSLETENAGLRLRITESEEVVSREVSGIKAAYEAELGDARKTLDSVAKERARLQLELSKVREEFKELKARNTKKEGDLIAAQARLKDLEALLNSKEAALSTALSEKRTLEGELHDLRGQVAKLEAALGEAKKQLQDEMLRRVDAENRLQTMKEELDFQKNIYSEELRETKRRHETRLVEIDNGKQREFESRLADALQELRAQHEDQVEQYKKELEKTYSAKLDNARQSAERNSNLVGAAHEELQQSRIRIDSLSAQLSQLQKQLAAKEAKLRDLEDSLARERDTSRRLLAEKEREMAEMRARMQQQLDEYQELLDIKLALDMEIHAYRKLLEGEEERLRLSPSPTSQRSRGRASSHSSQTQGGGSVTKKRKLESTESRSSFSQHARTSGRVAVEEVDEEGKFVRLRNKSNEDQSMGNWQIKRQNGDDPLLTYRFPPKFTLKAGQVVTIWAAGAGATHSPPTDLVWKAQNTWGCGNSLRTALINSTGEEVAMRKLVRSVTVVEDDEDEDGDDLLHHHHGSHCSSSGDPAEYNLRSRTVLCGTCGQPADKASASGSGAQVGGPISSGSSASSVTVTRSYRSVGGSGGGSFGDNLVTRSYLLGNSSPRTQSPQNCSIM
Outline: as §1

T2 sequence (Q9UHY7 whole entry): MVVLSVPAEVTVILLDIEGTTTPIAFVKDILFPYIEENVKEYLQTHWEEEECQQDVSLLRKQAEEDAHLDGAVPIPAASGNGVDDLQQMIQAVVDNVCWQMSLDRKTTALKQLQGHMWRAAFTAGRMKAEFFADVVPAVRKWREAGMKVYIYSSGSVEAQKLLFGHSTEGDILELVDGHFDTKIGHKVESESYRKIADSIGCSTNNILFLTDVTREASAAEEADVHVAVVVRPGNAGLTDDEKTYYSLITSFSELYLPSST
T3 sequence (P11413 whole entry): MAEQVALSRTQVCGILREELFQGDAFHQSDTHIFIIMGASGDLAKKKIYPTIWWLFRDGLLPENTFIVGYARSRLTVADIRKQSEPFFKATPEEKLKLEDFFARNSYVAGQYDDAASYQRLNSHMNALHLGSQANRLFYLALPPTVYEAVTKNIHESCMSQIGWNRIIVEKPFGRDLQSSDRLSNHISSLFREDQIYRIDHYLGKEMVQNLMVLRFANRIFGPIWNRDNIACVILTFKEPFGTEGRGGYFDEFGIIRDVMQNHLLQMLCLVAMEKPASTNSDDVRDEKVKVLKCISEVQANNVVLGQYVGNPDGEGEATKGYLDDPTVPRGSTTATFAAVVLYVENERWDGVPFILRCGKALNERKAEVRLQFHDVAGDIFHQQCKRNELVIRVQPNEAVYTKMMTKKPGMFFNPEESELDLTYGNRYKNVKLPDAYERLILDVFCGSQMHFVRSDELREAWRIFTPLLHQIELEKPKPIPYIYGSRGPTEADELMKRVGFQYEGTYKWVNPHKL

Compound | isoTOP-ABPP reactivity ratio at lysine P23381_K256 ([1]; 50 uM, 231 sol, in vitro) | isoTOP-ABPP reactivity ratio at lysine Q9UHY7_K111 ([2]; 50 uM, 231 sol, in vitro) | isoTOP-ABPP reactivity ratio at lysine P11413_K171 ([3]; 50 uM, 231 sol, in vitro) | isoTOP-ABPP reactivity ratio at lysine P02545_K135 (LMNA Prelamin-A/C; 50 uM, 231 sol, in vitro) | isoTOP-ABPP ratio (R) at liganded lysine P23381_K256 ([1]; 50 uM, in vitro) | isoTOP-ABPP ratio (R) at liganded lysine Q9UHY7_K111 ([2]; 50 uM, in vitro) | isoTOP-ABPP ratio (R) at liganded lysine P11413_K171 ([3]; 50 uM, in vitro) | isoTOP-ABPP ratio (R) at liganded lysine P02545_K135 (LMNA Prelamin-A/C; 50 uM, in vitro) | other results
O=C(Oc1c(F)c(F)c(F)c(F)c1F)c1ccc2ccccc2n1 [fragment 25, Pentafluorophenyl quinoline-2-carboxylate] | 4.4 | 1.1 | 0.8 | 0.9 | – | – | – | – | –
O=C(Oc1c(F)c(F)c(F)c(F)c1F)C(c1ccccc1)c1ccccc1 [fragment 20, Pentafluorophenyl 2,2-diphenylacetate] | – | – | – | – | – | – | – | – | R value (DMSO/fragment) for probe 1 labeling ([1]; P23381_K256, 50 uM, 231 sol, in vitro): 1.3; R value (DMSO/fragment) for probe 1 labeling ([2]; Q9UHY7_K111, 50 uM, 231 sol, in vitro): 1.0; R value (DMSO/fragment) for probe 1 labeling ([3]; P11413_K171, 50 uM, 231 sol, in vitro): 0.7; R value (DMSO/fragment) for probe 1 labeling (LMNA Prelamin-A/C; P02545_K135, 50 uM, 231 sol, in vitro): 1.0
CC(C)(C)OC(=O)N=C(NC(=O)OC(C)(C)C)n1cccn1 [fragment 50, reference compound] | – | – | – | – | – | – | – | – | isoTOP-ABPP ratio, lysine P23381_K256 ([1]; 100 uM_231_sol_in vitro): 1.1; isoTOP-ABPP ratio, lysine Q9UHY7_K111 ([2]; 100 uM_231_sol_in vitro): 15.1; isoTOP-ABPP ratio, lysine P11413_K171 ([3]; 100 uM_231_sol_in vitro): 1.1; isoTOP-ABPP ratio, lysine P02545_K135 (LMNA Prelamin-A/C; 100 uM_231_sol_in vitro): 1.3
O=C(Oc1ccc([N+](=O)[O-])cc1[N+](=O)[O-])c1ccccc1Nc1cccc(C(F)(F)F)c1 [fragment 40, 2,4-Dinitrophenyl 2-((3-(trifluoromethyl)phenyl)amino)benzoate] | – | – | – | – | 1.1 | 0.7 | 1.9 | 1.2 | –
N#Cc1ccc(C(=O)Oc2ccc([N+](=O)[O-])cc2[N+](=O)[O-])cc1 [fragment 44, 2,4-Dinitrophenyl 4-cyanobenzoate] | – | – | – | – | – | – | – | – | isoTOP-ABPP ratio, lysine P23381_K256 ([1]; 50 uM_231_sol_in vitro): 1.1; isoTOP-ABPP ratio, lysine Q9UHY7_K111 ([2]; 50 uM_231_sol_in vitro): 0.9; isoTOP-ABPP ratio, lysine P11413_K171 ([3]; 50 uM_231_sol_in vitro): 1.3; isoTOP-ABPP ratio, lysine P02545_K135 (LMNA Prelamin-A/C; 50 uM_231_sol_in vitro): 0.9
O=C(Oc1ccc([N+](=O)[O-])cc1[N+](=O)[O-])C(c1ccccc1)c1ccccc1 [fragment 30, 2,4-Dinitrophenyl 2,2-diphenylacetate] | 1.1 | 0.8 | 3.9 | 20.0 | – | – | – | – | –
O=C(ON1C(=O)CCC1=O)c1cc(C(F)(F)F)cc(C(F)(F)F)c1 [fragment 46, 3,5-Bis(trifluoromethyl)benzoic acid NHS ester] | – | – | – | – | – | – | – | – | isoTOP-ABPP ratio, lysine P23381_K256 ([1]; 50 uM_231_sol_in vitro): 1.6; isoTOP-ABPP ratio, lysine Q9UHY7_K111 ([2]; 50 uM_231_sol_in vitro): 1.1; isoTOP-ABPP ratio, lysine P11413_K171 ([3]; 50 uM_231_sol_in vitro): 0.9; isoTOP-ABPP ratio, lysine P02545_K135 (LMNA Prelamin-A/C; 50 uM_231_sol_in vitro): 0.7
O=C(Oc1ccc([N+](=O)[O-])cc1[N+](=O)[O-])c1ccc(Oc2ccccc2)cc1 [fragment 39, 2,4-Dinitrophenyl 4-phenoxybenzoate] | – | – | – | – | 0.9 | 0.8 | 1.1 | 1.0 | –
O=C(Oc1ccc([N+](=O)[O-])cc1[N+](=O)[O-])c1ccc(-c2ccccc2)cc1 [fragment 37, 2,4-Dinitrophenyl [1,1′-biphenyl]-4-carboxylate] | – | – | – | – | 0.4 | 0.9 | 0.9 | 0.9 | –
COc1cc(CCC(=O)Oc2ccc([N+](=O)[O-])cc2[N+](=O)[O-])cc(OC)c1OC [fragment 33, 2,4-Dinitrophenyl 3-(3,4,5-trimethoxyphenyl)propanoate] | 0.8 | 0.9 | 16.3 | 0.7 | – | – | – | – | –
